Test results reported in ChEMBL document CHEMBL1212897 (J Med Chem, 2010).

How the values were obtained:
[1] = molecular target: T1, Mineralocorticoid receptor (Homo sapiens, UniProt P08235); type: functional, cell-based, Huh-7;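 note: antagonism at Gal4-fused mineralocorticoid receptor in human Huh7 cells, measured by luciferase reporter gene read-out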
T1 sequence (P08235 whole entry): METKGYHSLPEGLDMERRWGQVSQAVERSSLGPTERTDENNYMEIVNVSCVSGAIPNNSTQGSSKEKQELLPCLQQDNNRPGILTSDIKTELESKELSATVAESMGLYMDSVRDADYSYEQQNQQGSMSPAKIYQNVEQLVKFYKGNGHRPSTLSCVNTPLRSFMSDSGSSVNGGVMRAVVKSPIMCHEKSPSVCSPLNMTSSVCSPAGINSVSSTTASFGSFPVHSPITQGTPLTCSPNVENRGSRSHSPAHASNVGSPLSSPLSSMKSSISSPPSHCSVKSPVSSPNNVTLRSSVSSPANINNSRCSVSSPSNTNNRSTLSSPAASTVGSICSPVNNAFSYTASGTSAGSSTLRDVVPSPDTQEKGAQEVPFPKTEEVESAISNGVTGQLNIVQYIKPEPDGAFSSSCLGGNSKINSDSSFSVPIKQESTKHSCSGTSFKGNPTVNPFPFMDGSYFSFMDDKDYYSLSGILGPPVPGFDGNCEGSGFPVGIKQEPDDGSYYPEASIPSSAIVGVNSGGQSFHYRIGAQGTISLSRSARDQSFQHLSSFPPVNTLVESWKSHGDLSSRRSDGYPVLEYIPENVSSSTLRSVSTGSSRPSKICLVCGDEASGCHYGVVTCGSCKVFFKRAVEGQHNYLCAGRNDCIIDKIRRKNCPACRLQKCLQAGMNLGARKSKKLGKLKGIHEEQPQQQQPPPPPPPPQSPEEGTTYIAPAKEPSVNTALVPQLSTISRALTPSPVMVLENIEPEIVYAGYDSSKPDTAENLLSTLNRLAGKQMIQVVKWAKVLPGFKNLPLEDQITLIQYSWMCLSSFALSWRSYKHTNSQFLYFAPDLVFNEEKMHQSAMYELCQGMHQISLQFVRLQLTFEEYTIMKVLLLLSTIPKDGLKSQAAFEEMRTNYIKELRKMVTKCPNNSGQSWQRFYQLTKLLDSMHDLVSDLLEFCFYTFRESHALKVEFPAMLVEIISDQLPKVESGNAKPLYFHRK

[2] = molecular target: Voltage-gated inwardly rectifying potassium channel KCNH2 (Homo sapiens, UniProt Q12809)
Sequence of Voltage-gated inwardly rectifying potassium channel KCNH2 (Q12809 whole entry): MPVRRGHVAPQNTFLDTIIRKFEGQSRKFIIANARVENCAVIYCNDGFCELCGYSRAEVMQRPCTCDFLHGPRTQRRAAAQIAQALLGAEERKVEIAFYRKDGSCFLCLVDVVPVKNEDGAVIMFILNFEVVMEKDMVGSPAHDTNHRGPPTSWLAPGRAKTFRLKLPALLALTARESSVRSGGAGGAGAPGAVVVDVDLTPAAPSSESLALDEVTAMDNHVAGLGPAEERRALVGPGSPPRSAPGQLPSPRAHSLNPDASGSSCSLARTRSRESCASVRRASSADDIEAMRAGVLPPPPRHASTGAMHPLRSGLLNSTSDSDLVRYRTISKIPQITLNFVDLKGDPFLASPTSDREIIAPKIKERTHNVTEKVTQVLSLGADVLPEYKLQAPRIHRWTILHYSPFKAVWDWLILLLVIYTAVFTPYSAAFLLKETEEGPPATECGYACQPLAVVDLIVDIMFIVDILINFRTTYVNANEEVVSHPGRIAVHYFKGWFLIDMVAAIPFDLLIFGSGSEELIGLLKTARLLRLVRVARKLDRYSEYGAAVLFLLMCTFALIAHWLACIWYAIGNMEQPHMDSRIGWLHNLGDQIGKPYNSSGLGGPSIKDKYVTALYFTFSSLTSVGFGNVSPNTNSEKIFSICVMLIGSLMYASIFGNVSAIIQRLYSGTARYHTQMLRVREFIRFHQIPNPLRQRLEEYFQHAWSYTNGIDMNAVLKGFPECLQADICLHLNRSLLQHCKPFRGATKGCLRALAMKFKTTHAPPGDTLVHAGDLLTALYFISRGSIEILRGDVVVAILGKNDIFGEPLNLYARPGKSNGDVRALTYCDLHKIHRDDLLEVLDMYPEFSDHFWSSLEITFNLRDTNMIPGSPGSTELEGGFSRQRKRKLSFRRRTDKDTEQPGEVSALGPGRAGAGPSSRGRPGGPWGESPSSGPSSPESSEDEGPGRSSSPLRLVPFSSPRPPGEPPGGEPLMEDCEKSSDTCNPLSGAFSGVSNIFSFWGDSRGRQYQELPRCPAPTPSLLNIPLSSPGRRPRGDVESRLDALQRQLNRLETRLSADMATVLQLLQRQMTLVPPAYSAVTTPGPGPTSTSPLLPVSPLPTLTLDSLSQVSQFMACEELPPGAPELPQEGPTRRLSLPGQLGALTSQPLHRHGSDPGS

[3] = Oral bioavailability in Sprague-Dawley rat at 2 mg/kg; type: ADME, organism-based; details: in vivo
[4] = Volume of distribution at steady state in Sprague-Dawley rat at 2 mg/kg, iv; type: ADME, organism-based; design: dose 2 mg/kg, route intravenous; details: in vivo, read-out: Vdss
[5] = Half life in Sprague-Dawley rat at 2 mg/kg, iv; type: ADME, organism-based; design: dose 2 mg/kg, route intravenous; details: in vivo
[6] = Clearance in Sprague-Dawley rat at 2 mg/kg, iv; type: ADME, organism-based; design: dose 2 mg/kg, route intravenous; details: in vivo
Estrogen receptor = molecular target: T2, Estrogen receptor (Homo sapiens, UniProt P03372); test: Antagonist activity at estrogen receptor; type: functional
T2 sequence (P03372 whole entry): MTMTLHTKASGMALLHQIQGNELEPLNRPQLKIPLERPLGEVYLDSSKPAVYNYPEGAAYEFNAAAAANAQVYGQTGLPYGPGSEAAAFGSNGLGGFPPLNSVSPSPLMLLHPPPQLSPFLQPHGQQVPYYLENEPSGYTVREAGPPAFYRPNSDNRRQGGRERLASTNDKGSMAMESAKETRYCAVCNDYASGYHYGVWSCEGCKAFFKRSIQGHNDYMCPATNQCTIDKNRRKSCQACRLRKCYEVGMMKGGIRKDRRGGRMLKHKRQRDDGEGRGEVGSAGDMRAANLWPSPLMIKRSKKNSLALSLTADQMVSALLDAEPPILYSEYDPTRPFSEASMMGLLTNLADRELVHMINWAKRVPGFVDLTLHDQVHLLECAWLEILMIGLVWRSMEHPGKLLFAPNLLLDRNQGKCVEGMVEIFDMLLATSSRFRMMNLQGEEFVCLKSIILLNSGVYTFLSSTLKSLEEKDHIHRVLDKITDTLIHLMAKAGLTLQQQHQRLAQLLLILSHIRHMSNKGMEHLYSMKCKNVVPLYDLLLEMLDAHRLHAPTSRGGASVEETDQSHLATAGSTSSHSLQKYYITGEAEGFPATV

Compound	IC50 [1]	also measured
N#Cc1ccc(N2N=C(c3ccc(C(=O)O)cc3)CC2C2CCCC2)cc1 (racemic)	151 nM	
N#Cc1ccc(N2N=C(c3ccc(C(=O)O)c(OCCCO)c3)C[C@@H]2C2CCCC2)cc1Cl	13 nM	
N#Cc1ccc(N2N=C(c3ccc4[nH]c(=O)oc4c3)CC2c2ccc(C(=O)O)cc2)cc1 (racemic)	> 10000 nM	IC50 [2]: > 30000 nM
N#Cc1ccc(N2N=C(c3ccc(C(=O)O)cc3)CC2c2ccc(F)cc2)c(F)c1 (racemic)	535 nM	
CC(C)CC1CC(c2ccc(C(=O)O)cc2)=NN1c1ccc(C#N)cc1 (racemic)	2530 nM	
N#Cc1ccc(N2N=C(c3ccc(C(=O)O)cc3)CC2c2ccc(F)cc2)cc1F (racemic)	243 nM	
N#Cc1ccc(N2N=C(c3ccc(C(=O)O)c(F)c3)C[C@@H]2C2CCCC2)cc1Cl	52 nM	
N#Cc1ccc(N2N=C(c3ccc(C(=O)O)cc3)CC2c2ccncc2)cc1 (racemic)	> 10000 nM	
N#Cc1ccc(N2N=C(c3ccc(C(=O)O)cc3)CC2c2ccc(F)cc2)cc1C(F)(F)F (racemic)	127 nM	
COCc1cc(N2N=C3c4ccc(C(=O)O)cc4CC[C@@H]3[C@@H]2C2CCCC2)ccc1C#N	150 nM	
Cc1cc(N2N=C3c4ccc(C(=O)O)cc4CO[C@H]3[C@H]2C2CCCC2)ccc1C#N (racemic)	39 nM	
N#Cc1ccc(N2N=C(c3ccc4[nH]c(=O)oc4c3)CC2c2ccc(F)cc2)cc1 (racemic)	58 nM	
N#Cc1ccc(N2N=C3c4ccc(C(=O)O)cc4CC[C@@H]3[C@@H]2C2CCC2)cc1Cl (racemic)	21 nM	
O=C(O)c1ccc(N2N=C(c3ccc4[nH]c(=O)oc4c3)CC2c2ccc(F)cc2)cc1 (racemic)	784 nM	IC50 [2]: > 30000 nM
Cc1cc(N2N=C(c3ccc(C(=O)O)cc3)CC2c2ccc(F)cc2)ccc1C#N (racemic)	56 nM	
N#Cc1ccc(N2N=C3c4ccc(C(=O)O)cc4CC[C@@H]3[C@@H]2C2CCCO2)cc1Cl (mixture of isomers)	720 nM	
N#Cc1ccc(N2N=C3c4ccc(C(=O)O)cc4CC[C@@H]3[C@@H]2C2CCCC2)cc1OCc1ccccc1 (racemic)	488 nM	
O=C(O)c1ccc(C2=NN(c3ccc(C(=O)O)cc3)C(c3ccc(F)cc3)C2)cc1 (racemic)	> 10000 nM	
N#Cc1ccc(N2N=C(c3ccc(C(=O)O)cc3)CC2C2CCCCC2)cc1 (racemic)	1290 nM	
N#Cc1ccc(N2N=C3c4ccc(C(=O)O)cc4CO[C@H]3[C@H]2C2CCCC2)cc1Cl (stereo in doubt)	146 nM	

Compound	IC50 [1]	also measured
COc1cc(C2=NN(c3ccc(C#N)c(Cl)c3)[C@@H](C3CCCC3)C2)ccc1C(=O)O		bioavailability [3]: 57%; Vd [4]: 3.9 L/kg; half-life [5]: 1.9 h; clearance [6]: 24 mL/min/kg; IC50 (Estrogen receptor): > 10000 nM
Cc1nc(C)c(C2=NN(c3ccc(C#N)cc3)[C@@H](c3ccc(F)cc3)C2)s1	32 nM	
N#Cc1ccc(N2N=C(c3ccc(C(=O)O)c(OC(F)(F)F)c3)C[C@@H]2C2CCCC2)cc1Cl	80 nM	
O=C(O)c1ccc(C2=NN(c3ccccc3)C(c3ccc(F)cc3)C2)cc1 (racemic)	9730 nM	
N#Cc1ccc(N2N=C(c3ccc(C(=O)O)cc3)CC2c2cccnc2)cc1 (racemic)	> 10000 nM	
COC(=O)[C@@H]1CC2=CC(=O)CC[C@]2(C)[C@@]23O[C@@H]2C[C@@]2(C)[C@@H](CC[C@@]24CCC(=O)O4)[C@H]13 [EPLERENONE]		IC50 (Estrogen receptor): > 10000 nM
COc1cc(C2=NN(c3ccc(C#N)c(Cl)c3)[C@@H](C3CCCC3)C2C)ccc1C(=O)O (single isomer, unassigned)	69 nM	
COc1cccc(C2CC(c3ccc(C(=O)O)cc3)=NN2c2ccc(C#N)cc2)c1 (racemic)	1590 nM	
N#Cc1ccc(N2N=C(c3ccc(C(=O)O)cc3)CC2c2ccc(F)cc2)cc1 (racemic)	246 nM	IC50 [2]: > 30000 nM
N#Cc1ccc(N2N=C(c3ccc(C(=O)O)c(Cl)c3)C[C@@H]2C2CCCC2)cc1Cl	26 nM	
N#Cc1ccc(N2N=C(c3ccc(C(=O)O)cc3)CC2c2ccc(F)cc2)cc1C#N (racemic)	> 1000 nM	
N#Cc1ccc(N2N=C(c3ccc(C(=O)O)cc3)C[C@@H]2c2ccc(F)cc2)cc1	101 nM	
CN(C)CCN(C)C(=O)c1ccc(C2=NN(c3ccc(C#N)cc3)C(c3ccc(F)cc3)C2)cc1 (racemic)	83 nM	IC50 [2]: 170 nM
N#Cc1ccc(N2N=C3c4ccc(C(=O)O)cc4CC[C@@H]3[C@@H]2C2CC=CC2)cc1Cl (racemic)	15 nM	
N#Cc1ccc(N2N=C(c3ccc(C(=O)O)cc3)CC2c2cccs2)cc1 (racemic)	763 nM	
COc1ccc(N2N=C(c3ccc(C(=O)O)cc3)CC2c2ccc(F)cc2)cc1 (racemic)	1440 nM	
N#Cc1ccc(N2N=C3c4ccc(C(=O)O)cc4CC[C@@H]3[C@@H]2C2CCCC2)cc1O (racemic)	> 500 nM	
N#Cc1ccc(N2N=C(c3ccc(CC(=O)O)cc3)C[C@@H]2C2CCCC2)cc1Cl	135 nM	
N#Cc1ccc(N2N=C(c3ccc(C(=O)O)cc3)CC2c2cccc(F)c2)cc1 (racemic)	441 nM	
COc1cc(N2N=C3c4ccc(C(=O)O)cc4CC[C@@H]3[C@@H]2C2CCCC2)ccc1C#N (racemic)	7 nM	

Compound	IC50 [1]	also measured
N#Cc1ccc(N2N=C(c3ccc(C(=O)O)cc3)C[C@H]2c2ccc(F)cc2)cc1	8360 nM	
N#Cc1ccc(N2N=C3c4ccc(C(=O)O)cc4C[C@@H]3[C@@H]2c2ccc(F)cc2)cc1 (racemic)	4340 nM	
N#Cc1ccc(N2N=C(c3ccc4[nH]c(=O)oc4c3)C[C@H]2c2ccc(F)cc2)cc1	2080 nM	
N#Cc1ccc(N2N=C(c3ccc(C(=O)O)cc3)CC2c2ccc(F)cc2)c(Cl)c1 (racemic)	284 nM	
N#Cc1ccc(N2N=C(c3ccc(C(=O)O)cc3)CC2c2ccc(F)cc2)cc1Cl (racemic)	56 nM	
N#Cc1ccc(N2N=C(c3ccc(C(=O)O)cc3)CC2C2CCCC2)cc1Cl (racemic)	54 nM	
CCOC(=O)c1ccc(N2N=C(c3ccc(C(=O)O)cc3)CC2c2ccc(F)cc2)cc1 (racemic)	180 nM	
N#Cc1ccc(N2N=C3c4ccc(C(=O)O)cc4CC[C@@H]3[C@@H]2C2C=CC=CO2)cc1Cl (mixture of isomers)	127 nM	
N#Cc1ccc(N2N=C3c4ccc(C(=O)O)cc4CC[C@H]3[C@H]2c2ccc(F)cc2)cc1Cl (racemic)	223 nM	
N#Cc1ccc(N2N=C3c4ccc(C(=O)O)cc4CC[C@@H]3[C@@H]2c2ccc(F)cc2)cc1 (racemic)	553 nM	
N#Cc1ccc(N2N=C(c3ccc(C(=O)O)cc3)CC2c2ccco2)cc1 (racemic)	410 nM	
COc1cc(C(=O)O)ccc1C1=NN(c2ccc(C#N)c(Cl)c2)[C@@H](C2CCCC2)C1	2 nM	
N#Cc1ccc(N2N=C(c3ccc(C(=O)O)cc3)CC2c2ccccn2)cc1 (racemic)	> 10000 nM	
N#Cc1ccc(N2N=C3c4ccc(C(=O)O)cc4CO[C@@H]3[C@@H]2c2ccc(F)cc2)cc1Cl (racemic)	849 nM	
Cc1cc(N2N=C3c4ccc(C(=O)O)cc4CC[C@@H]3[C@@H]2C2CCCC2)ccc1C#N (racemic)	4 nM	
N#Cc1ccc(N2N=C(c3ccc(C(=O)O)cc3)CC2Cc2ccccc2)cc1 (racemic)	3650 nM	
O=[N+]([O-])c1ccc(N2N=C(c3ccc(O)cc3)CC2c2ccc(F)cc2)cc1 (racemic)	460 nM	
N#Cc1ccc(N2N=C(c3ccc4[nH]c(=O)oc4c3)C[C@@H]2c2ccc(F)cc2)cc1	41 nM	IC50 [2]: 29 nM
N#Cc1ccc(N2N=C3c4ccc(C(=O)O)cc4CO[C@@H]3[C@@H]2C2CCCC2)cc1Cl (stereo in doubt)	65 nM	
CC(C)C1CC(c2ccc(C(=O)O)cc2)=NN1c1ccc(C#N)c(Cl)c1 (racemic)	383 nM	
